Test results: US10981906B2, “Substituted pyrrolopyridine JAK inhibitors and methods of making and using the same” (ACLARIS THERAPEUTICS, INC., priority 2017, dated 2021)
Like-named read-outs stand apart in the source and are kept apart here.

What was measured:
JAK1 = JAK1 (Homo sapiens (Human), UniProt P23458); assay: JAK1 enzyme activity assay (Thermo Fisher SelectScreen Z-lyte); type: biochemical; details: 1 hour kinase reaction, read-out: JAK1 Inhibition IC50
Protocol: The inhibitory potency of candidate compounds of JAK1 done at Thermo Fisher Scientific in their Selectscreen using a Z-lyte assay. The 2×JAK1/Tyr 06 mixture is prepared in 50 mM HEPES pH 6.5, 0.01% BRIJ-35, 10 mM MgCl2, 1 mM EGTA, 0.02% NaN3. The final 10 μL of the Kinase Reaction consists of 21.2-91.5 ng JAK1 and 2 μM Tyr 06 in 50 mM HEPES pH 7.0, 0.01% BRIJ-35, 10 mM MgCl2, 1 mM EGTA, 0.01% NaN3. After the 1 hour Kinase Reaction incubation, 5 μL of a 1:128 dilution of Development Reagent is added.
(§1) Background signal is defined in the absence of enzyme and uninhibited signal is defined in the presence of vehicle (2% DMSO) alone. Compounds were evaluated in an 11 point dose-response ranging from […] to 0.34 nM. IC50 values of compounds are determined using a 4 parameter logistical fit of emission ratio as a function of the concentration of compound.

JAK3 (a.a. 781-1124) = JAK3 (a.a. 781-1124) (Homo sapiens (Human), UniProt P52333); assay: JAK3 enzyme activity assay (SRCtide phosphorylation, Caliper); type: biochemical; details: 2.5 nM JAK3, 1 μM SRCtide, 1 uM ATP, 40 minutes; read-out: JAK3 Inhibition IC50
Protocol: The activity of JAK3 (a.a. 781-1124, ThermoFisher) was quantified by measuring the phosphorylation of SRCtide (FAM-GEEPLYWSFPAKKK-NH2). Kinase reactions were run in a 384-well Greiner plate with 2% final DMSO concentration under the buffer conditions of 20 mM HEPES, pH 7.5, 10 mM MgCl2, 0.01% BSA, and 0.0005% Tween-20. The kinase reaction components were 2.5 nM JAK3, 1 μM SRCtide peptide and 1 uM ATP. Examples were tested in dose-response starting at 2 μM (11 concentrations, 3-fold serial dilution, duplicate reactions). The reactions were incubated at room temperature for 40 minutes, then stopped by adding a 1:1 volume of 30 mM EDTA in 20 mM HEPES, pH 7.5 (15 mM EDTA final). After the reaction was stopped, the phosphorylated and unphosphorylated peptides were separated and quantified using a Caliper LC3000/EZ-Reader system and HTS Well Analyzer Software (Caliper, A PerkinElmer Company, Hopkinton, Mass.). GraFit (Erithacus Software Ltd., Horley, U.K.) was used to calculate inhibitor potency by fitting dose-response data to the 4-parameter logistical IC50 equation.
as §1

[1] = test system: IL-2 stimulated STAT5 phosphorylation on Tyr694 (JAK1/3); assay: JAK1/3 cellular target modulation: IL-2 stimulated phospho-STAT5 in PBMC; type: cell-based; details: IL-2 25 ng/ml, 1 hour compound preincubation, read-out: IL2-STAT5 Inhibition IC50
Text: (§2) Target modulation was based upon the ability of a compound to inhibit JAK isoform specific phosphorylation of selected substrates. IL-2 stimulated STAT5 phosphorylation on Tyr694 was used to assess JAK1/3 compound selectivity. GM-CSF stimulated STAT5 phosphorylation on Tyr694 was used to assess JAK2 compound selectivity. IFNγ stimulated STAT1 phosphorylation on Tyr701 was used to assess JAK1/2 compound selectivity. For all three assays, human PBMC from frozen stocks were thawed, pelleted, resuspended in complete media (90% RPMI, 10% heat inactivated FBS, 10 mM HEPES, 47 μM 2-ME, pen/strep) and placed in wells of a 96 well V-bottom plate at 200,000 per well in 120 μl complete media. Compounds were added as 15 μl per well of 10× working stock solutions in complete media with 1% DMSO (or medium with 1% DMSO for controls) and placed on a plate shaker in a 37° C. incubator with 5% CO2 for 1 hour with gentle shaking (setting of 3). Stimulation used the addition of soluble cytokines. For the JAK1/3 phospho-STAT5 assay, 15 μl of 10× working stock recombinant human IL-2 was added to a final concentration of 25 ng/ml. For the JAK2 phospho-STAT5 assay, 15 μl of 10× working stock recombinant human GM-CSF was added to a final concentration of 5 ng/ml. For the JAK1/2 phospho-STAT1 assay, 15 μl of 10× working stock of recombinant human IFNγ was added to a final concentration of 10 ng/ml. Plates were then placed back on the plate shaker in the incubator for an additional 5, 5 and 10 minutes respectively upon which the plates were removed from the incubator, sealed with a plate sealer and the cells pelleted at 400×g for 5 minutes. After pelleting, the media was removed by aspiration and the cells were lysed in ELISA specific cell lysis buffer. The levels of phospho-STAT5 were determined using a Phospho (Tyr694)/Total STAT5a,b Whole Cell Lysate kit from Meso Scale Discovery. Levels of phospho-STAT1 were determined using a CST-PathScan Phospho-STAT1 (Tyr701) Sandwich ELISA kit.

[2] = test system: IFNγ stimulated STAT1 phosphorylation on Tyr701 (JAK1/2); assay: JAK1/2 cellular target modulation: IFNγ stimulated phospho-STAT1 in PBMC; type: cell-based; details: IFNγ 10 ng/ml, 1 hour compound preincubation, read-out: Infγ-STAT1 IC50
Text: as §2

JAK3 (a.a. 781-1124), sequence (P52333 781-1124): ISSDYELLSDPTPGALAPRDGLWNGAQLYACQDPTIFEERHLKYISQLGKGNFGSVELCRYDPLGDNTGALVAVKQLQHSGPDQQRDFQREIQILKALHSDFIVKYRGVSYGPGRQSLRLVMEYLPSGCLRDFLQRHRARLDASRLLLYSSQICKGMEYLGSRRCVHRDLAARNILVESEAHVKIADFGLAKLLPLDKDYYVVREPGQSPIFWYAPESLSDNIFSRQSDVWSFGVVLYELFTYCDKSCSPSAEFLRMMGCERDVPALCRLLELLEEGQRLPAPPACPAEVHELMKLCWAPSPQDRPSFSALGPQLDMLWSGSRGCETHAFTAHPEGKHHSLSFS
JAK1, sequence (P23458 whole entry): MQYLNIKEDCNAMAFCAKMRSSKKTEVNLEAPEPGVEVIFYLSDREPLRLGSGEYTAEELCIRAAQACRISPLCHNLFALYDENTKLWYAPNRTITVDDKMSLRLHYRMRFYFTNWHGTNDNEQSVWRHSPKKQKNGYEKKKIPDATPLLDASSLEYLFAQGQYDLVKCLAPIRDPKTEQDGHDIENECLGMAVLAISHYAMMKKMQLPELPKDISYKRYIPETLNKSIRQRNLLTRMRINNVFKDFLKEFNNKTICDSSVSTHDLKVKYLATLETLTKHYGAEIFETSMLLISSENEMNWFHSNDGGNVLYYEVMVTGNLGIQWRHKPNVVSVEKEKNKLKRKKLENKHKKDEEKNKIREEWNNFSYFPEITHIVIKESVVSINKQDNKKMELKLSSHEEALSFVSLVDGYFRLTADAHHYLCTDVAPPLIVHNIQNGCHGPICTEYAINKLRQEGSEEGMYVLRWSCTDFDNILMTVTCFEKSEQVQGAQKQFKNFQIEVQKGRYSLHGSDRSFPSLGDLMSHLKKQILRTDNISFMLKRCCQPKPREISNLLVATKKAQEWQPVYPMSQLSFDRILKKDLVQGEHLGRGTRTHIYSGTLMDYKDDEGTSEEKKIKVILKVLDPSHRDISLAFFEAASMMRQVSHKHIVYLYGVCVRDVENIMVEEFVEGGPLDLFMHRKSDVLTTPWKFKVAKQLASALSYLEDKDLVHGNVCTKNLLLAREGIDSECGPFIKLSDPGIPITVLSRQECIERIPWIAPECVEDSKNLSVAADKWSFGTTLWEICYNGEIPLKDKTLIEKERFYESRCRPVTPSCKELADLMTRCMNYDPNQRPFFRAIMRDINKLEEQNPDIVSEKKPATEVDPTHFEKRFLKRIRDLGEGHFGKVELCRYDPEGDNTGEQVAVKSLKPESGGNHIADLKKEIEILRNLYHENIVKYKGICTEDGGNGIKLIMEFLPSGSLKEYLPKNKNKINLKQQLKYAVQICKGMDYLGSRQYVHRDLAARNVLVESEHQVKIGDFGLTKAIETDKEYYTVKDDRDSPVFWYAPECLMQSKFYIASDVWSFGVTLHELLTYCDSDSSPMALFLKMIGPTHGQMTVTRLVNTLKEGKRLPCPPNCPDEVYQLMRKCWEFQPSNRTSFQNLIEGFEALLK

Row | IC50 (JAK1) [µM] | IC50 (JAK3 (a.a. 781-1124)) [µM] | IC50 ([1]; Homo sapiens, PBMC) [µM] | IC50 ([2]; Homo sapiens, PBMC) [µM] | IC50 ([1]; human PBMC) [µM] | SMILES | IC50 ([2]; human PBMC) [µM]
1 | ≤ 0.01 | 0.01 to 0.1 | ≤ 0.1 | 0.1 to 1 | – | CCOC(=O)c1cnc2[nH]ccc2c1NC1CCC(O)C(CC#N)C1 (stereo not drawn) [Example 142, ethyl 4-((3-(cyanomethyl)-4-hydroxycyclohexyl)amino)-1H-pyrrolo[2,3-b]pyridine-5-carboxylate] | –
2 | ≤ 0.01 | ≤ 0.01 | ≤ 0.1 | 0.1 to 1 | – | CCOC(=O)c1cnc2[nH]ccc2c1NC1CCCC(CCC#N)C1 (stereo not drawn) [Example 132, ethyl 4-((3-(2-cyanoethyl)cyclohexyl)amino)-1H-pyrrolo[2,3-b]pyridine-5-carboxylate] | –
3 | 0.01 to 0.1 | 0.01 to 0.1 | 0.1 to 1 | > 1 | – | CCOC(=O)c1cnc2[nH]ccc2c1NC1CCCC(O)C1 (stereo not drawn) [Example 141, ethyl 4-((3-hydroxycyclohexyl)amino)-1H-pyrrolo[2,3-b]pyridine-5-carboxylate] | –
4 | ≤ 0.01 | ≤ 0.01 | ≤ 0.1 | 0.1 to 1 | – | COC(=O)c1cnc2[nH]ccc2c1N[C@H]1CCC[C@H](CCC#N)C1 (racemic) [Example 151, trans-racemic-methyl 4-((3-(2-cyanoethyl)cyclohexyl)amino)-1H-pyrrolo[2,3-b]pyridine-5-carboxylate] | –
5 | ≤ 0.01 | ≤ 0.01 | ≤ 0.1 | ≤ 0.1 | – | CCOC(=O)c1cnc2[nH]ccc2c1N[C@@H]1CCCN(C(=O)CC#N)C1 [Example 117, ethyl (R)-4-((1-(2-cyanoacetyl)piperidin-3-yl)amino)-1H-pyrrolo[2,3-b]pyridine-5-carboxylate] | –
6 | 0.1 to 1 | 0.1 to 1 | 0.1 to 1 | > 1 | – | N#CCC[C@H]1CCC[C@H](Nc2c(C(=O)O)cnc3[nH]ccc23)C1 [Example 147, 4-(((1S,3R)-3-(2-cyanoethyl)cyclohexyl)amino)-1H-pyrrolo[2,3-b]pyridine-5-carboxylic acid] | –
7 | 0.01 to 0.1 | ≤ 0.01 | 0.1 to 1 | 0.1 to 1 | – | COCCOC(=O)c1cnc2[nH]ccc2c1N[C@H]1CCC[C@H](CCC#N)C1 (racemic) [Example 148, racemic, trans-2-methoxyethyl 4-((3-(2-cyanoethyl)cyclohexyl)amino)-1H-pyrrolo[2,3-b]pyridine-5-carboxylate] | –
8 | 0.01 to 0.1 | ≤ 0.01 | 0.1 to 1 | > 1 | – | COCCOC(=O)c1cnc2[nH]ccc2c1N[C@H]1CN(C(=O)CC#N)CC[C@H]1C [Example 21, 2-methoxyethyl 4-(((3R,4R)-1-(2-cyanoacetyl)-4-methylpiperidin-3-yl)amino)-1H-pyrrolo[2,3-b]pyridine-5-carboxylate] | –
9 | 0.01 to 0.1 | 0.01 to 0.1 | 0.1 to 1 | > 1 | – | CCOC(=O)c1cnc2[nH]ccc2c1NC1CCC(OCCC#N)C1 (stereo not drawn) [Example 113, ethyl 4-((3-(2-cyanoethoxy)cyclopentyl)amino)-1H-pyrrolo[2,3-b]pyridine-5-carboxylate] | –
10 | ≤ 0.01 | ≤ 0.01 | ≤ 0.1 | 0.1 to 1 | – | CCOC(=O)c1cnc2[nH]ccc2c1N[C@H]1CCC[C@@H](CCC#N)C1 (racemic) [Example 133, (rac)-(cis)-ethyl 4-((3-(2-cyanoethyl)cyclohexyl)amino)-1H-pyrrolo[2,3-b]pyridine-5-carboxylate] | –
11 | 0.01 to 0.1 | 0.01 to 0.1 | 0.1 to 1 | > 1 | – | CCOC(=O)c1cnc2[nH]ccc2c1N(C)[C@H]1CN(C(=O)CC#N)CC[C@H]1C [Example 1, ethyl 4-(((3R,4R)-1-(2-cyanoacetyl)-4-methylpiperidin-3-yl)(methyl)amino)-1H-pyrrolo[2,3-b]pyridine-5-carboxylate] | –
12 | 0.1 to 1 | 0.01 to 0.1 | – | – | 0.1 to 1 | CCOC(=O)c1cnc2[nH]ccc2c1NC1CCC(CCC#N)C1 (single isomer, unassigned; stereoisomer 2) [Example 155, Ethyl 4-((3-(2-cyanoethyl)cyclopentyl)amino)-1H-pyrrolo[2,3-b]pyridine-5-carboxylate, single stereoisomer 2] | > 1
13 | 0.01 to 0.1 | ≤ 0.01 | 0.1 to 1 | 0.1 to 1 | – | CCOC(=O)c1cnc2[nH]ccc2c1N[C@H]1CCC[C@H](CCC#N)C1 (single isomer, unassigned; enantiomer 2) [Example 138, (trans)-ethyl 4-((3-(2-cyanoethyl)cyclohexyl)amino)-1H-pyrrolo[2,3-b]pyridine-5-carboxylate, enantiomer 2] | –
14 | 0.1 to 1 | 0.01 to 0.1 | 0.1 to 1 | > 1 | – | CCOC(=O)c1cnc2[nH]ccc2c1NC1CCC(CCC#N)C1 (single isomer, unassigned; stereoisomer 1) [Example 154, Ethyl 4-((3-(2-cyanoethyl)cyclopentyl)amino)-1H-pyrrolo[2,3-b]pyridine-5-carboxylate, single stereoisomer 1] | –
15 | 0.01 to 0.1 | 0.01 to 0.1 | 0.1 to 1 | > 1 | – | CCOC(=O)c1cnc2[nH]ccc2c1N[C@@H]1CC[C@@H](O)C1 (single isomer, unassigned) [Example 72, (trans)-ethyl 4-((3-hydroxycyclopentyl)amino)-1H-pyrrolo [2,3-b]pyridine-5-carboxylate] | –
16 | ≤ 0.01 | ≤ 0.01 | ≤ 0.1 | 0.1 to 1 | – | CCOC(=O)c1cnc2[nH]ccc2c1N[C@H]1CCC[C@H](CCC#N)C1 (racemic) [Example 134, (rac)-(trans)-Ethyl 4-((3-(2-cyanoethyl)cyclohexyl)amino)-1H-pyrrolo[2,3-b]pyridine-5-carboxylate] | –
17 | 0.01 to 0.1 | 0.01 to 0.1 | 0.1 to 1 | > 1 | – | CC(C)OC(=O)c1cnc2[nH]ccc2c1N[C@H]1CN(C(=O)CC#N)CC[C@H]1C [Example 124, isopropyl 4-(((3R,4R)-1-(2-cyanoacetyl)-4-methylpiperidin-3-yl)amino)-1H-pyrrolo[2,3-b]pyridine-5-carboxylate] | –

Row | SMILES | IC50 (JAK1) [µM] | IC50 (JAK3 (a.a. 781-1124)) [µM] | IC50 ([1]; Homo sapiens, PBMC) [µM] | IC50 ([2]; Homo sapiens, PBMC) [µM] | IC50 ([1]; human PBMC) [µM] | IC50 ([2]; human PBMC) [µM]
18 | CCOC(=O)c1cnc2[nH]ccc2c1N[C@H]1CC[C@H](OC(=O)CC#N)C1 (single isomer, unassigned) [Example 73, (trans)-ethyl 4-((3-(2-cyanoacetoxy)cyclopentyl)amino)-1H-pyrrolo [2,3-b]pyridine-5-carboxylate] | ≤ 0.01 | 0.01 to 0.1 | ≤ 0.1 | – | – | ≤ 0.1
